The numbers were not newly measured in article PMC3172902 (British Journal of Cancer, 2011), which cites them from elsewhere.

In this series the target is CDK2 (Homo sapiens, UniProt P24941). As to the kind of experiment: cell-free CDK2 inhibition (value printed without citation; method not described). Format: biochemical.

With NU6252, the IC50 was 19 nM.

One may read the IC50 as the concentration that inhibits the measured activity by half.
